Reference: PubChem BioAssay (NCI)
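Briefly, cells in 96-well plates were exposed to five compound concentrations for 48 h, and endpoints were estimated by linear interpolation. The concentration for 50% growth inhibition is given as GI50. TGI is the concentration that stops growth completely.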

Columns and labels:
Assay in all cases: DTP human tumour cell line panel, 48 h
[1] = system: TK-10 renal
[2] = system: SNB-75 CNS
[3] = system: M14 melanoma
[4] = system: CAKI-1 renal
[5] = system: SNB-19 CNS
[6] = system: IGROV1 ovarian
[7] = system: KM12 colon
[8] = system: OVCAR-8 ovarian
[9] = system: HL-60(TB) leukemia
[10] = system: BT-549 breast

Row | SMILES | TGI [1] | TGI [2] | TGI [3] | TGI [4] | TGI [5] | TGI [6] | TGI [7] | TGI [8] | TGI [9] | TGI [10] | GI50 [1] | GI50 [2] | GI50 [3] | GI50 [4] | GI50 [5] | GI50 [6] | GI50 [7] | GI50 [8] | GI50 [10] | GI50 [9]
1 | CC(=O)n1nnc2ccc([N+](=O)[O-])cc21 | > 100 µM | > 100 µM | > 100 µM | > 100 µM | > 100 µM | > 100 µM | > 100 µM | > 100 µM | > 100 µM |  |  |  |  |  |  |  |  |  |  | 
2 | O=C1CC(C(=O)O)Cc2c(Br)ccc(O)c21 (stereo unspecified) | > 100 µM |  | > 100 µM | > 100 µM | > 100 µM | > 100 µM | > 100 µM | > 100 µM | > 100 µM | > 100 µM |  |  |  |  |  |  |  |  |  | 
3 | O=C1c2cccc([N+](=O)[O-])c2C(=O)c2nccnc21 | 3.85 µM | 2.35 µM | 2.96 µM | 16.4 µM | 4.04 µM |  |  | 7.09 µM | 4.81 µM |  |  |  |  |  |  |  |  |  |  | 
4 | CN(C)CCCOc1ccc(/C=C2/CCC/C(=C/c3ccc(OCCCN(C)C)cc3)C2=O)cc1 | 5.33 µM | 2.61 µM | 6.07 µM |  | 4.74 µM | 6.78 µM | 2.93 µM | 6.5 µM | 3.65 µM |  |  |  |  |  |  |  |  |  |  | 
5 | Cc1cc(Cl)ccc1NC(=O)CC1SC(=NC(=O)c2ccccc2Cl)NC1=O (stereo unspecified) |  | 35 µM | 32 µM | 33.9 µM | > 100 µM | > 100 µM |  | > 100 µM | 4.72 µM |  |  |  |  |  |  |  |  |  |  | 
6 | CC(C)COC(=O)c1ccc(N=Cc2ccc(C=Nc3ccc(C(=O)OCC(C)C)cc3)cc2)cc1 | > 100 µM | > 100 µM | > 100 µM | > 100 µM | > 100 µM | > 100 µM | > 100 µM | > 100 µM | > 100 µM |  |  |  |  |  |  |  |  |  |  | 
7 | N#CC(C#N)=Cc1ccc(C(O)P(=O)(O)O)cc1 (stereo unspecified) | > 100 µM |  | > 100 µM | > 100 µM | > 100 µM | > 100 µM | > 100 µM | > 100 µM | > 100 µM |  |  |  |  |  |  |  |  |  |  | 
8 | Cc1ccc(NC(=O)CCc2nnc3s/c(=C\c4cccc([N+](=O)[O-])c4)c(=O)n23)cc1 | > 100 µM | > 100 µM | > 100 µM | > 100 µM | > 100 µM | > 100 µM | > 100 µM | > 100 µM |  |  |  |  |  |  |  |  |  |  |  | 
9 | Cc1cncc(-c2nc(NCCc3c[nH]c4ccccc34)c3ncn(C(C)C)c3n2)c1 | 52.8 µM | 21.1 µM | 16.9 µM | 30.4 µM | 46.6 µM | 22.1 µM | 12.8 µM | > 100 µM |  | 15 µM | 10.3 µM | 4.87 µM | 3.94 µM | 4.12 µM | 11.5 µM | 5.94 µM | 3.36 µM | 4.6 µM | 2990 nM | 
10 | C=C1C(=O)O[C@@H]2C[C@@H]1CC[C@]1(C)O[C@H]1CC/C(C)=C/CC[C@@]2(C)O | 37.8 µM |  | 35.3 µM | 37 µM | > 100 µM | > 100 µM | 34.3 µM | 57.8 µM |  | 39.3 µM | 15.4 µM |  | 16.8 µM | 18.7 µM | 49.6 µM | 31.7 µM | 16.2 µM | 22.3 µM | 16900 nM | 
11 | O=C(Nc1ccccc1)n1cc(-c2ccccn2)c(N2CCOCC2)n1 | > 100 µM | 43.7 µM | > 100 µM | 49.7 µM | > 100 µM | > 100 µM | 62.7 µM | > 100 µM | 6.93 µM |  |  |  |  |  |  |  |  |  |  | 
12 | Cc1ccc(/C=C(/C#N)n2nnc3ncccc32)cc1 | 9.22 µM | > 100 µM | 17.7 µM |  | 16.8 µM | 21.5 µM | 14.9 µM | > 100 µM | 9.92 µM | 19.7 µM | 2.39 µM | 2.98 µM | 2.89 µM |  | 3.43 µM | 2.28 µM | 2.11 µM | 3.16 µM | 2460 nM | 2990 nM
13 | Cc1ccc(C(=O)C(c2nc3n(c2O)C(=N)N=N3)c2nc3n(c2O)C(=N)N=N3)cc1 (stereo unspecified) | > 100 µM | > 100 µM | > 100 µM | > 100 µM | > 100 µM | > 100 µM | > 100 µM | > 100 µM | > 100 µM |  |  |  |  |  |  |  |  |  |  | 
14 | COC(=O)C(=O)C(C#N)c1cccc(Cl)c1 (stereo unspecified) | > 100 µM | > 100 µM | > 100 µM | > 100 µM | > 100 µM | > 100 µM | > 100 µM | > 100 µM | > 100 µM |  |  |  |  |  |  |  |  |  |  | 
15 | COc1cccc(N2C(=O)/C(=C/c3ccc(N(CCC#N)CCC#N)cc3)N=C2c2cc([N+](=O)[O-])ccc2Cl)c1 |  | > 100 µM | > 100 µM | > 100 µM | > 100 µM | > 100 µM | > 100 µM | > 100 µM | > 100 µM |  |  |  |  |  |  |  |  |  |  | 
16 | O=CC1CCC=CC1NC(=O)OCc1ccccc1 (stereo unspecified) | > 100 µM | 94.3 µM | > 100 µM | > 100 µM |  | > 100 µM | > 100 µM | 52.3 µM | 46.5 µM |  |  |  |  |  |  |  |  |  |  | 
17 | O=C(CCC(=O)Nc1ccc(Cl)cc1)CC(=O)c1ccc2ccccc2c1 | > 100 µM | > 100 µM | > 100 µM | > 100 µM | > 100 µM | > 100 µM | > 100 µM | > 100 µM | > 100 µM |  |  |  |  |  |  |  |  |  |  | 
18 | O=c1c2ccccc2nc2n1CCc1c-2[nH]c2cc3c(cc12)OCO3 | > 25 µM | 22 µM | > 25 µM |  | 21.9 µM | > 25 µM | > 25 µM | > 25 µM | > 25 µM |  |  |  |  |  |  |  |  |  |  | 
19 | CCOC(=O)NC(=O)c1cn(CCCCCCCCCCC(=O)NCCCN2CCN(CCCNC(=O)CCCCCCCCCCn3cc(C(=O)NC(=O)OCC)c(=O)[nH]c3=O)CC2)c(=O)[nH]c1=O | > 100 µM | > 100 µM | > 10 µM | > 10 µM | > 100 µM |  | > 100 µM | > 100 µM | > 100 µM |  |  |  |  |  |  |  |  |  |  | 
20 | Cc1cc2nc3c(=O)[nH]c(=O)nc-3n(CC(O)C(O)C(O)CO)c2cc1N (stereo unspecified) | > 100 µM | > 100 µM | > 100 µM |  | > 100 µM | > 100 µM | > 100 µM | > 100 µM | > 100 µM |  |  |  |  |  |  |  |  |  |  | 
21 | CN1C(=O)/C(=C2\S/C(=N\c3nnc(-c4ccccc4)o3)NC2=O)c2ccccc21 | > 100 µM | > 100 µM | > 100 µM | > 100 µM | > 100 µM | > 100 µM | > 100 µM | > 100 µM |  | > 100 µM | > 100 µM | > 100 µM | > 100 µM | 51.8 µM | > 100 µM | 59.9 µM | > 100 µM | > 100 µM | > 100000 nM | 
